Holding throughout (assay type): in vivo
Assay [1] relates to Zea mays (ZEAMX, corn/maize). The assay is described as follows: Test 1 glasshouse assay, post-emergence herbicidal activity. Particulars: 312 h, post-emergence (Example 1B Table 1), after 13 days, read-out: Percentage phytotoxicity ZEAMX. The method in brief:
(§1)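 Plants sprayed post-emergence after 8 days' growth with active ingredient in acetone/water (50:50) plus 0.5% Tween 20; glasshouse at 24/16° C day/night, 14 h light, 65% humidity. Visual percentage phytotoxicity scored 13 days later (100% = total damage, 0% = none).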

For assay [2], the system named is Setaria faberi (SETFA). The description is as above. As to conditions: 312 h, post-emergence (Example 1B Table 1), after 13 days, read-out: Percentage phytotoxicity SETFA. An outline of the steps:
as §1

Another assay deals with Avena fatua (AVEFA). The assay is described as follows: Test 2 glasshouse assay (IF50 formulation, X-77), post-emergence herbicidal activity. As to conditions: 360 h, 15 DAA, visual score, read-out: Post-emergence herbicidal activity (percentage phytotoxicity) AVEFA; for pest or weed control at 30 g/ha: application rate 30 g/ha; for pest or weed control at 125 g/ha: application rate 125 g/ha. As for the experimental part:
(§2) Seeds of a variety of monocotyledonous and dicotyledonous test plants are sown in standard soil in pots. The plants are cultivated for one day (for pre-emergence) or for about 12 days (for post-emergence) under controlled conditions in a glasshouse (warm climate species at 24/18° C., cool climate species at 20/16° C., both at day/night; 16 hours light; 65% humidity).
(§3) An “instant formulation”, known as the “IF50”, containing 50 g/liter (i.e. 5% w/v) of the “technical” (i.e. unformulated) active ingredient is prepared by dissolving the active ingredient in a mixture of organic solvents and emulsifier, details of which are provided in the Table below. This IF50 is then mixed with a small, variable amount of acetone to aid dissolution, before addition of a 0.2% v/v aqueous solution of the adjuvant X-77 (which is a mixture of alkyl aryl polyoxyethylene glycols and free fatty acids in isopropanol, CAS Registry number 11097-66-8), as the aqueous diluent, to form an aqueous spray solution which contains a predetermined concentration of the active ingredient (which varies depending on the application rate of the active ingredient to the plants) and 0.2% v/v of the adjuvant X-77. This aqueous spray solution is then sprayed onto the plants, after one day's cultivation (for pre-emergence), or after about 12 days' cultivation (range=10-13 days) (for post-emergence).
(§4) The test plants are then grown on, in a glasshouse (greenhouse) under controlled conditions (warm climate species at 24/18° C., cool climate species at 20/16° C., both at day/night; 16 hours light; 65% humidity) and are watered twice daily. 15 days after application of the test herbicide (15DAA) (for post-emergence), and 20 days after application of the test herbicide (20DAA) (for pre-emergence), the test plants are evaluated visually, and an assessed percentage phytotoxicity score is given for each herbicidal application on each plant species (with 100%=total damage to plant; 0%=no damage to plant).
(§5) Cool climate (“cool season”) grassy monocotyledonous weeds: Alopecurus myosuroides (ALOMY), Avena fatua (AVEFA), Lolium perenne (LOLPE).

In another assay the test system is Lolium perenne (LOLPE). The assay is described as above. As to conditions: 360 h, 15 DAA, visual score, read-out: Post-emergence herbicidal activity (percentage phytotoxicity) LOLPE; for pest or weed control at 30 g/ha: application rate 30 g/ha; for pest or weed control at 125 g/ha: application rate 125 g/ha. As for the experimental part:
as §2, §3, §4, §5

Assay [3] concerns Alopecurus myosuroides (ALOMY). The assay is described as above. As to conditions: 360 h, 15 DAA, visual score, read-out: Post-emergence herbicidal activity (percentage phytotoxicity) ALOMY; for pest or weed control at 30 g/ha: application rate 30 g/ha; for pest or weed control at 125 g/ha: application rate 125 g/ha. As for the experimental part: as §2, §3, §4, §5
The subject of assay [4] is Echinochloa crus-galli (ECHCG). The assay is described as follows: Test 1 glasshouse assay, post-emergence herbicidal activity. As to conditions: 312 h, after 13 days, read-out: Percentage phytotoxicity ECHCG. An outline of the steps: (§6)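 Plants sprayed 8 days after sowing with active ingredient in acetone/water (50:50) containing 0.5% Tween 20, grown in glasshouse at 24/16°C day/night, 14 h light, 65% humidity. Phytotoxicity scored visually after 13 days as percentage damage (100% = total damage; 0% = none).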

In assay [5] the test system is Alopecurus myosuroides (ALOMY). The assay is described as above. As to conditions: 312 h, after 13 days, read-out: Percentage phytotoxicity ALOMY. The method in brief:
as §6

Assay [6] has as its system Echinochloa crus-galli (ECHCG). The assay is described as follows: Test 2 glasshouse assay (IF50 formulation, X-77), pre-emergence herbicidal activity. As to conditions: 480 h, 20DAA, read-out: Percentage phytotoxicity ECHCG. As for the experimental part: as §2, §3, §4
(§7) Warm climate (“warm season”) grassy monocotyledonous weeds: Setaria faberi (SETFA), Panicum miliaceum (PANMI), Sorghum vulgare Pers. (SORVU) (or Sorghum bicolor (L) Moench ssp. Bicolor), Digitaria sanguinalis (DIGSA), Echinochloa crus-galli (ECHCG), and Brachiaria plantaginea (BRAPL).

Assay [7] has as its system Digitaria sanguinalis (DIGSA). The description is as above. As to conditions: 480 h, 20DAA, read-out: Percentage phytotoxicity DIGSA. As for the experimental part:
as §2, §3, §4, §7

The subject of assay [8] is Setaria faberi (SETFA). Described as above. Particulars: 480 h, 20DAA, read-out: Percentage phytotoxicity SETFA. As for the experimental part:
as §2, §3, §4, §7

For assay [9], the system named is Panicum miliaceum (PANMI). The description is as above. As to conditions: 480 h, 20DAA, read-out: Percentage phytotoxicity PANMI. As for the experimental part:
as §2, §3, §4, §7

Assay [10] concerns Sorghum vulgare Pers. (SORVU). Described as above. As to conditions: Sorghum bicolor, 480 h, 20DAA, read-out: Percentage phytotoxicity SORVU. As for the experimental part:
as §2, §3, §4, §7

The subject of assay [11] is Brachiaria plantaginea (BRAPL). Described as above. Particulars: Urochloa plantaginea, 480 h, 20DAA, read-out: Percentage phytotoxicity BRAPL. As for the experimental part:
as §2, §3, §4, §7

[12] abbreviates: post-emergence (Example 1B Table 1), 30 g/ha.
Where [13] appears, read: post-emergence (Example 1B Table 1).
Setting [14] is: post-emergence (Example 1B Table 2).

The structures appear in SMILES notation.

Consider `C#CCC1CC(=O)C(c2c(Cl)cc(-c3ccc(Cl)cc3)cc2OC)C1=O` (stereo not shown) [Compound A11, 2-[2-chloro-4-(4-chlorophenyl)-6-methoxyphenyl]-4-prop-2-ynylcyclopentane-1,3-dione], for which the pest or weed control at 30 g/ha was found to be 100% in [1] (30 g/ha); 100% in the assay on Setaria faberi (SETFA) [2] (30 g/ha); 20% with Avena fatua (AVEFA); 30% in the assay on Lolium perenne (LOLPE); 30% in assay [3]; 100% in [4] (setting [12]). Also, in assay [5] (setting [12]), the pest or weed control at 30 g/ha is 70%. Also, the pest or weed control at 250 g/ha was 100% in assay [1] (250 g/ha); 100% in the assay on Setaria faberi (SETFA) [2]; 70% with Avena fatua (AVEFA) (application rate 250 g/ha); 40% in the assay with Lolium perenne (LOLPE) (application rate 250 g/ha); 70% in [3] (application rate 250 g/ha); 100% in assay [4] (setting [13]). The pest or weed control at 250 g/ha in assay [5] (setting [13]) was found to be 100%; in assay [6] (250 g/ha), 70%; in assay [7] (250 g/ha), 90%; with Setaria faberi (SETFA) [8] (250 g/ha) it was 90%; in assay [9] (250 g/ha), 60%; in assay [10] (250 g/ha), 80%. Moreover, in assay [11] (250 g/ha), the pest or weed control at 250 g/ha turned out to be 100%.
On to `C#CCC1CC(=O)C(c2c(C)cc(-c3ccc(F)cc3)cc2C)C1=O` (stereo not shown) [Compound A1, 2-[4-(4-fluorophenyl)-2,6-dimethyl-phenyl]-4-prop-2-ynylcyclopentane-1,3-dione], for which the pest or weed control at 62.5 g/ha with Setaria faberi (SETFA) [2] came out at 90%; in assay [4] (setting [13]), 100%; in assay [5] (setting [13]) it was 90%. Also, the pest or weed control at 250 g/ha (in the assay on Setaria faberi (SETFA) [2]; in [4] (setting [13]); in [5] (setting [13])) was 100% throughout. The pest or weed control at 30 g/ha with Avena fatua (AVEFA) came to 70%; in the assay with Lolium perenne (LOLPE), 70%; in [3], 60%. Also, the pest or weed control at 125 g/ha stood at 100% in the assay on Avena fatua (AVEFA); 80% in the assay with Lolium perenne (LOLPE); 80% in assay [3]; 90% in assay [6]; 100% in [7]; 100% with Setaria faberi (SETFA) [8]. The pest or weed control at 125 g/ha in assay [9] was found to be 100%; in assay [10], 90%; in [11] it was 90%.
As to `C#CCC1CC(OC(C)=O)=C(c2c(C)cc(-c3ccc(F)cc3)cc2C)C1=O` (stereo not shown) [Compound A45], the pest or weed control at 62.5 g/ha was determined as 90% in the assay on Setaria faberi (SETFA) [2], 100% in assay [4] (setting [13]) and 90% in assay [5] (setting [13]). Further, the pest or weed control at 250 g/ha (in the assay with Setaria faberi (SETFA) [2]; in assay [4] (setting [13]); in [5] (setting [13])) was 100% in each case. Also, the values for the pest or weed control at 30 g/ha (with Avena fatua (AVEFA); in the assay on Lolium perenne (LOLPE); in assay [3]) were 70%, 80% and 70%, respectively. Besides, the pest or weed control at 125 g/ha was determined as 90% with Avena fatua (AVEFA); 100% in the assay with Lolium perenne (LOLPE); 90% in [3]; 80% in assay [6]; 90% in [7]; 90% in the assay with Setaria faberi (SETFA) [8]. For the same molecule, the pest or weed control at 125 g/ha is 100% in assay [9], 80% in assay [10] and 90% in assay [11].
In the case of `C#CCC1C(=O)C(c2c(C)cc(C)cc2C)C(=O)C1CC#C` (stereo not shown) [Compound A42], the figures for the pest or weed control at 125 g/ha (with Avena fatua (AVEFA); in the assay on Lolium perenne (LOLPE); in [3]) were 0%, 80% and 50%, respectively. For the same molecule, the pest or weed control at 500 g/ha with Avena fatua (AVEFA) (application rate 500 g/ha) was determined as 50%; in the assay with Lolium perenne (LOLPE) (application rate 500 g/ha) it was 100%; in [3] (application rate 500 g/ha), 70%; in assay [6] (500 g/ha), 100%; in [7] (500 g/ha) it was 70%; with Setaria faberi (SETFA) [8] (500 g/ha), 80%. Besides, the pest or weed control at 500 g/ha was found to be 100% in assay [9] (500 g/ha), 80% in [10] (500 g/ha) and 100% in assay [11] (500 g/ha). The pest or weed control at 250 g/ha stood at 100% in assay [4] (setting [14]) and 90% in [5] (setting [14]).

These data come from patent US10375956B2, “Herbicidally active 2-(substituted-phenyl)-cyclopentane-1,3-dione compounds and derivatives thereof” (Syngenta Limited, priority 2013, dated 2019).
